{"source": "ChEMBL document CHEMBL3352642", "about": "“6-Acetonyldihydrochelerythrine Is a Potent Inducer of Apoptosis in HCT116 and SW620 Colon Cancer Cells” (J Nat Prod, 2014)", "key": {"SW-620 [1]": {"test_system": "SW-620", "assay": "Induction of cell death in human SW620 cells at IC50 after 72 hrs by Guava ViaCount assay relative to control", "assay_type": "functional"}, "SW-620 [2]": {"test_system": "SW-620", "assay": "Induction of apoptosis in human SW620 cells assessed as increase in p53 expression at 1 to 2 times IC50 after 72 hrs by immunoblot analysis relative to control", "assay_type": "functional, cell-based"}, "HCT-116 [3]": {"test_system": "HCT-116", "assay": "Induction of apoptosis in human HCT116 cells assessed as increase in p53 expression at 1 to 2 times IC50 after 72 hrs by immunoblot analysis relative to control", "assay_type": "functional, cell-based"}, "SW-620 [4]": {"test_system": "SW-620", "assay": "Induction of apoptosis in human SW620 cells assessed as increase in PARP cleavage at 1 to 2 times IC50 after 72 hrs by immunoblot analysis relative to control", "assay_type": "functional, cell-based"}, "SW-620 [5]": {"test_system": "SW-620", "assay": "Induction of apoptosis in human SW620 cells assessed as reduction in ERK5 expression at 1 to 2 times IC50 after 72 hrs by immunoblot analysis relative to control", "assay_type": "functional, cell-based"}, "HCT-116 [6]": {"test_system": "HCT-116", "assay": "Induction of apoptosis in human HCT116 cells assessed as change in nuclear morphology at 2 times IC50 after 24 hrs by fluorescent microscopy relative to control", "assay_type": "functional"}, "HCT-116 [7]": {"test_system": "HCT-116", "assay": "Induction of apoptosis in human HCT116 cells assessed as reduction in Akt expression at 1 to 2 times IC50 after 72 hrs by immunoblot analysis relative to control", "assay_type": "functional, cell-based"}, "HCT-116 [8]": {"test_system": "HCT-116", "assay": "Induction of apoptosis in human HCT116 cells assessed as change in nuclear morphology at IC50 after 24 hrs by fluorescent microscopy relative to control", "assay_type": "functional"}, "HCT-116 [9]": {"test_system": "HCT-116", "assay": "Induction of apoptosis in human HCT116 cells assessed as reduction in XIAP expression at 1 to 2 times IC50 after 72 hrs by immunoblot analysis relative to control", "assay_type": "functional, cell-based"}, "HCT-116 [10]": {"test_system": "HCT-116", "assay": "Induction of apoptosis in human HCT116 cells assessed as increase in PARP cleavage at 1 to 2 times IC50 after 72 hrs by immunoblot analysis relative to control", "assay_type": "functional, cell-based"}, "SW-620 [11]": {"test_system": "SW-620", "assay": "Induction of apoptosis in human SW620 cells assessed as reduction in XIAP expression at 1 to 2 times IC50 after 72 hrs by immunoblot analysis relative to control", "assay_type": "functional, cell-based"}, "[12]": {"assay": "(§1) Cytotoxicity against human HCT116 cells assessed as cell death at 2 times IC50 after 72 hrs by LDH release assay relative to control", "assay_type": "functional, HCT-116"}, "HCT-116 [13]": {"test_system": "HCT-116", "assay": "Induction of apoptosis in human HCT116 cells assessed as reduction in ERK5 expression at 1 to 2 times IC50 after 72 hrs by immunoblot analysis relative to control", "assay_type": "functional, cell-based"}, "SW-620 [14]": {"test_system": "SW-620", "assay": "Cytotoxicity against human SW620 cells after 72 hrs by MTS assay", "assay_type": "functional, cell-based", "settings": "SW-620, 72 h"}, "SW-620 [15]": {"test_system": "SW-620", "assay": "Induction of apoptosis in human SW620 cells assessed as reduction in Bcl-2 expression at 1 to 2 times IC50 after 72 hrs by immunoblot analysis relative to control", "assay_type": "functional, cell-based"}, "[16]": {"assay": "Cytotoxicity against human HCT116 cells after 72 hrs by MTS assay", "assay_type": "functional, cell-based", "settings": "HCT-116, 72 h"}, "SW-620 [17]": {"test_system": "SW-620", "assay": "Cytotoxicity against human SW620 cells assessed as cell death at 2 times IC50 after 72 hrs by LDH release assay relative to control", "assay_type": "functional"}, "[18]": {"assay": "(§2) Induction of cell death in human HCT116 cells at IC50 after 72 hrs by Guava ViaCount assay relative to control", "assay_type": "functional, HCT-116"}, "SW-620 [19]": {"test_system": "SW-620", "assay": "Induction of apoptosis in human SW620 cells assessed as reduction in Akt expression at 1 to 2 times IC50 after 72 hrs by immunoblot analysis relative to control", "assay_type": "functional, cell-based"}, "SW-620 [20]": {"test_system": "SW-620", "assay": "Induction of apoptosis in human SW620 cells assessed as change in nuclear morphology at 2 times IC50 after 24 hrs by fluorescent microscopy relative to control", "assay_type": "functional"}, "[21]": {"assay": "(§3) Induction of cell death in human HCT116 cells at 2 times IC50 after 72 hrs by Guava ViaCount assay relative to control", "assay_type": "functional, HCT-116"}, "SW-620 [22]": {"test_system": "SW-620", "assay": "Induction of cell death in human SW620 cells at 2 times IC50 after 72 hrs by Guava ViaCount assay relative to control", "assay_type": "functional"}, "HCT-116 [23]": {"test_system": "HCT-116", "assay": "Induction of apoptosis in human HCT116 cells assessed as reduction in Bcl-XL expression at 1 to 2 times IC50 after 72 hrs by immunoblot analysis relative to control", "assay_type": "functional, cell-based"}, "[24]": {"assay": "(§4) Cytotoxicity against human HCT116 cells assessed as cell death at IC50 after 72 hrs by LDH release assay relative to control", "assay_type": "functional, HCT-116"}, "HCT-116 [25]": {"test_system": "HCT-116", "assay": "Induction of apoptosis in human HCT116 cells assessed as reduction in Bcl-2 expression at 1 to 2 times IC50 after 72 hrs by immunoblot analysis relative to control", "assay_type": "functional, cell-based"}, "SW-620 [26]": {"test_system": "SW-620", "assay": "Induction of apoptosis in human SW620 cells assessed as reduction in Bcl-XL expression at 1 to 2 times IC50 after 72 hrs by immunoblot analysis relative to control", "assay_type": "functional, cell-based"}, "SW-620 [27]": {"test_system": "SW-620", "assay": "Induction of apoptosis in human SW620 cells assessed as change in nuclear morphology at IC50 after 24 hrs by fluorescent microscopy relative to control", "assay_type": "functional"}, "SW-620 [28]": {"test_system": "SW-620", "assay": "Cytotoxicity against human SW620 cells assessed as cell death at IC50 after 72 hrs by LDH release assay relative to control", "assay_type": "functional"}, "HCT-116 [29]": {"test_system": "HCT-116", "assay": "as §1", "assay_type": "functional"}, "HCT-116 [30]": {"test_system": "HCT-116", "assay": "as §2", "assay_type": "functional"}, "HCT-116 [31]": {"test_system": "HCT-116", "assay": "as §3", "assay_type": "functional"}, "HCT-116 [32]": {"test_system": "HCT-116", "assay": "as §4", "assay_type": "functional"}}, "note": "Active and inactive are the calls of the source. The calls are words filed in the database; no cut-off is given here.", "data": [{"compound": "COc1ccc2c(c1OC)[C@H](CC(C)=O)N(C)c1c-2ccc2cc3c(cc12)OCO3", "values": [{"measurement": "Activity", "setting": "SW-620 [1]", "value": 34, "unit": "%"}, {"measurement": "Activity", "setting": "SW-620 [2]", "value": "Active"}, {"measurement": "Activity", "setting": "HCT-116 [3]", "value": "Active"}, {"measurement": "Activity", "setting": "SW-620 [4]", "value": "Active"}, {"measurement": "Activity", "setting": "SW-620 [5]", "value": "Active"}, {"measurement": "Activity", "setting": "HCT-116 [6]", "value": 22, "unit": "%"}, {"measurement": "Activity", "setting": "HCT-116 [7]", "value": "Active"}, {"measurement": "Activity", "setting": "HCT-116 [8]", "value": 19, "unit": "%"}, {"measurement": "Activity", "setting": "HCT-116 [9]", "value": "Active"}, {"measurement": "Activity", "setting": "HCT-116 [10]", "value": "Active"}, {"measurement": "Activity", "setting": "SW-620 [11]", "value": "Active"}, {"measurement": "fold change (FC)", "setting": "[12]", "value": 1.3}, {"measurement": "Activity", "setting": "HCT-116 [13]", "value": "Active"}, {"measurement": "IC50", "setting": "SW-620 [14]", "value": 3.8, "unit": "µM"}, {"measurement": "Activity", "setting": "SW-620 [15]", "value": "Active"}, {"measurement": "IC50", "setting": "[16]", "value": 2.4, "unit": "µM"}, {"measurement": "fold change (FC)", "setting": "SW-620 [17]", "value": 1.1}, {"measurement": "Activity", "setting": "[18]", "value": 25, "unit": "%"}, {"measurement": "Activity", "setting": "SW-620 [19]", "value": "Active"}, {"measurement": "Activity", "setting": "SW-620 [20]", "value": 27, "unit": "%"}, {"measurement": "Activity", "setting": "[21]", "value": 65, "unit": "%"}, {"measurement": "Activity", "setting": "SW-620 [22]", "value": 65, "unit": "%"}, {"measurement": "Activity", "setting": "HCT-116 [23]", "value": "Active"}, {"measurement": "fold change (FC)", "setting": "[24]", "value": 1.2}, {"measurement": "Activity", "setting": "HCT-116 [25]", "value": "Active"}, {"measurement": "Activity", "setting": "SW-620 [26]", "value": "Active"}, {"measurement": "Activity", "setting": "SW-620 [27]", "value": 22, "unit": "%"}]}, {"compound": "O=c1[nH]cc(F)c(=O)[nH]1", "note": "[FLUOROURACIL]", "values": [{"measurement": "Activity", "setting": "SW-620 [1]", "value": "Active"}, {"measurement": "fold change (FC)", "setting": "SW-620 [28]", "value": 1.1}, {"measurement": "Activity", "setting": "HCT-116 [6]", "value": "<10", "unit": "%"}, {"measurement": "Activity", "setting": "HCT-116 [29]", "value": "Active"}, {"measurement": "IC50", "setting": "SW-620 [14]", "value": 5.3, "unit": "µM"}, {"measurement": "IC50", "setting": "[16]", "value": 0.5, "unit": "µM"}, {"measurement": "fold change (FC)", "setting": "SW-620 [17]", "value": 1.9}, {"measurement": "Activity", "setting": "HCT-116 [30]", "value": "Active"}, {"measurement": "Activity", "setting": "SW-620 [20]", "value": 13, "unit": "%"}, {"measurement": "Activity", "setting": "HCT-116 [31]", "value": "Active"}, {"measurement": "Activity", "setting": "SW-620 [22]", "value": "Active"}, {"measurement": "Activity", "setting": "HCT-116 [32]", "value": "Active"}]}]}
